From ChEMBL document CHEMBL6083277, “Discovery of SZJK-0421: A Novel Potent, Low Toxicity, Selective Second Generation of CRM1 Inhibitor for the Treatment of Both Hematological and Solid Tumors” (J Med Chem, 2024)
Activity calls are given as the source filed them. The calls are words filed in the database; no cut-off is given here.

System: MM1.S
Experiment: Antiproliferative activity against human MM1.S cells assessed as inhibition of cell growth incubated for 72 hrs by celltiter-glo assay
Type: functional, cell-based

SMILES	IC50 [nM]	Activity
NC(=O)/C=C(\c1ccc(F)nc1)c1cnn(-c2cc(C(F)(F)F)cc(C(F)(F)F)c2)c1	–	inactive
COc1ncc(/C(=C\n2cnc(-c3cc(C(F)(F)F)cc(C(F)(F)F)c3)n2)C(N)=O)cn1	646	–
NC(=O)/C(=C/n1ccc(-c2cc(C(F)(F)F)cc(C(F)(F)F)c2)n1)c1ccncc1	1430	–
O=C(NNc1cnccn1)/C(=C/n1cnc(-c2cc(C(F)(F)F)cc(C(F)(F)F)c2)n1)c1cncnc1	328	–
CONC(=O)/C(=C/n1cnc(-c2cc(C(F)(F)F)cc(C(F)(F)F)c2)n1)c1ccsc1	990	–
NC(=O)/C(=C/n1cnc(-c2cc(C(F)(F)F)cc(C(F)(F)F)c2)n1)c1c[nH]c2ccccc12	313	–
NC(=O)/C(=C/c1cnn(-c2cc(C(F)(F)F)cc(C(F)(F)F)c2)c1)c1ccncc1	–	inactive
NC(=O)/C=C(\c1cncc(F)c1)c1cnn(-c2cc(C(F)(F)F)cc(C(F)(F)F)c2)c1	–	inactive
CONC(=O)/C(=C/n1cnc(-c2cc(C(F)(F)F)cc(C(F)(F)F)c2)n1)c1ccn(C)n1	1200	–

More lines, main results first:

IC50 [nM]	SMILES	Activity
142	O=C(NC1CCOCC1)/C(=C/n1cnc(-c2cc(C(F)(F)F)cc(C(F)(F)F)c2)n1)c1cncnc1	–
1700	CONC(=O)/C(=C/n1cnc(-c2cc(OC(=O)CCNC(=O)CCCC[C@@H]3SC[C@@H]4NC(=O)N[C@@H]43)cc(C(F)(F)F)c2)n1)c1cncnc1	–
332	CC(C)(C)NNC(=O)/C(=C/n1cnc(-c2cc(C(F)(F)F)cc(C(F)(F)F)c2)n1)c1cncnc1	–
75.7	CON(C)C(=O)/C(=C/n1cnc(-c2cc(C(F)(F)F)cc(C(F)(F)F)c2)n1)c1cncnc1	–
321	O=C(NC1CCCCCC1)/C(=C/n1cnc(-c2cc(C(F)(F)F)cc(C(F)(F)F)c2)n1)c1cncnc1	–
178	O=C(NC1CC1)/C(=C/n1cnc(-c2cc(C(F)(F)F)cc(C(F)(F)F)c2)n1)c1cncnc1	–
